Reference: paper PMC5641551, “Chemical Proteomics for Target Discovery of Head-to-Tail Cyclized Mini-Proteins” (Frontiers in Chemistry, 2017)

Legend:
14-3-3 proteins = settings: cited from earlier work
Excerpt: There are generally two types of 14-3-3 ligands: (i) inhibitors or (ii) stabilizers. […] In contrast, 14-3-3 stabilizers enforce a protein-protein interaction and they may account for an increased retention of 14-3-3 complexed proteins in the cytosol or other cellular compartments (Ottmann, [2013]; Bier et al., [2015]).

GST-tagged 14-3-3β = assay: co-precipitation of GST-tagged 14-3-3β with cyclotide probe and competitors; type: binding; settings: immunoblot and far Western blot; 2 h at 4°C; competitors 150–500-fold molar excess
Method: (§1) Splenocytes or Jurkat cells were lysed with 25 mM Tris-HCl pH 7.4, 40 mM KCl, 2.5 mM MgSO4 2.5 mM CaCl2, 2% (v/v) glycerol, 1 mM EDTA under repeated freeze-thaw cycles and 10 min sonification. All experiments were performed in buffer with 1x complete protease inhibitor cocktail (Hoffman-La Roche, Basel, Switzerland). Cell membranes and debris were pelleted for 30 min at 16,000 × g and the supernatant corresponds to the “soluble cell lysate.” Protein concentration was determined using a bicinchoninic acid assay kit (Thermo Scientific) and DTT (1 mM) was added to keep redox potential constant during binding experiments. Photo-affinity pull down samples were submitted to denaturing sodium dodecyl sulfate polyacrylamide gel electrophoresis (PAGE). For immunoblotting according to earlier published protocols (Gruber et al., [2007]; Bergmayr et al., [2013]) proteins were semi-dry transferred onto a nitrocellulose membrane 0.45 μM (Amersham Protran, GE Healthcare, Austria) using a Fast Semi-dry blotter (Bio-Rad) at 0.25 mA per gel for 1 h. Primary rabbit anti-GFP antibody (1:5,000) was from Invitrogen (A6455), rabbit anti-GST antibody (1:2,500) from Abcam (ab9085), and mouse anti-human calcineurin subunit A antibody (1:2,000) clone BE2.1 from eBioscience. Secondary ECL anti-mouse (NA931V) or ECL anti-rabbit (NA934VS) IgG antibodies (1:10,000) were conjugated with horse radish peroxidase (GE Healthcare). Chemo-luminescence signals were detected on an imaging system FluorChem HD2 (Alpha Innotech, CA, United States). For silver staining protein gels were treated immediately after electrophoresis with fixing solution EtOH/ddH2O/acetic acid 50/40/10% (v/v/v) for 20 min. Gels had to be washed acid free, first with 50% (v/v) EtOH for 10 min and with ddH2O for 2 h. Gels were exposed to sensitization buffer 0.025% Na2S2O3 in ddH2O for 3 min, followed by 2 min wash with ddH2O. Gels were silver loaded using a 0.15% AgNO3 solution for 45 min in the dark. The protein bands were stained in development buffer formaldehyde/Na2CO3 0.04/2% (v/w) under rigorous shaking. The reaction was quenched with 5% (v/v) acetic acid solution and the gels were stored until further processing in the stopping buffer at 4°C. Pixel quantification was carried out using ImageJ v1.47 (National Institute for Health).
Biotin-LC-LC-labeled (ThermoFisher) peptides (1–5 nmoles) with or without ([…]) were incubated with Jurkat cell or murine splenocyte cell lysates (150–500 μg proteins) for 2 h at 4°C in the presence of protease inhibitors. UV-activation of photo-crosslinking moiety benzophenone was induced by irradiation at 360 nm on ice for 15 min (Stratalinker, Stratagene, CA, United States). […]

[1] = system: 14-3-3 proteins / 25 kDa protein band in murine splenocyte lysates; assay: photo-affinity pull down, splenocyte lysate, with competitors; type: binding, mouse; settings: for competition effect for 14-3-3 proteins (order): competitors at 100-fold molar excess versus bait [T20K,W23Bpa]kB1, in-gel digestion and proteomics
Method: as §1
Biotin-LC-LC-labeled (ThermoFisher) peptides (1–5 nmoles) with or without (non-biotinylated) competitor (20–100-fold molar excess) were incubated with Jurkat cell or murine splenocyte cell lysates (150–500 μg proteins) for 2 h at 4°C in the presence of protease inhibitors. UV-activation of photo-crosslinking moiety benzophenone was induced by irradiation at 360 nm on ice for 15 min (Stratalinker, Stratagene, CA, United States). […]

[2] = system: Foxo3a transcriptional activity in HEK293 cells co-transfected with 14-3-3β; assay: Foxo3a luciferase reporter gene assay; type: cell-based, human; settings: for Foxo3a transcriptional activity, effect in words: HEK293, luciferase reporter, PI3K inhibitors as controls, peptide 4 h
Method: Jurkat cells were cultured in RPMI medium containing phenol red supplemented with 10% (v/v) heat deactivated fetal calf serum and 100 U/mL penicillin/streptomycin at 37°C in humidified atmosphere of 5% CO2. HEK293 cells were cultured in Dulbecco's modified eagle high glucose medium supplied with 10% fetal calf serum and 100 U per mL penicillin/streptomycin. Cell transfection was carried out by Jetprime® according to the manufacturer's recommendation (Polyplus, Illkirch, France).
Forkhead box protein 3a induced transcriptional activity was measured on transiently transfected HEK293 cells (5 × 10^4). The reporter plasmid encoding luciferase under the control of a promotor containing forkhead responsive elements and the human p-Foxo3a-HA plasmid were gifts of Michael Greenberg provided by the Addgene consortium (#1787 and #1789; Brunet et al., [1999]). The plasmids encoding the mouse p-14-3-3 beta-GST protein and the functional forkhead transcription factor were used in a 1.5-fold amount compared to the reporter construct. The transfection was completed after 6 h and the cells could recover for 4 h in growth medium. The cells were serum starved using 1% (v/v) fetal bovine serum in phenol red free DMEM medium supplemented with antibiotics overnight. After 4 h peptide and 24 h of fusicoccin-A treatment the luciferase assay was developed using luciferase development kit from Promega E151 (Wisconsin, United States) and the luminescence was measured on a synergy H4 plate reader (Biotek). Control compounds were the PI3K inhibitors wortmannin and LY294002 (both Sigma Aldrich). The recorded data were normalized to the non-treated control sample. Significance and IC50-values were calculated from at least two biological replicates using GraphPad Prism. Data analysis was performed by non-linear regression using a four parameter Hill equation.
If not stated in detail for the respective single experiment the statistical tests were performed using GraphPad Prism 5.04 (GraphPad, La Jolla, CA) using one-way ANOVA with Bonferonni or Dunnett's Post-hoc test. The number of technical and biological repeats was justified by analysis of error and reproducibility of results. Significance threshold P < 0.05 was applied to all experiments. For the data shown in Figure 3 three individuals for the in vivo experiments were used and each data point was performed in three technical replicates. The pull down experiments shown in Figures 4A,B were performed a single time and the data represent two technical repeats. Gel lanes were loaded with single (1x) or doubled (2x) amount of pull down proteins for better visibility. The data illustrated in Figures 4C,D were performed in two independent experiments. Silver stained gel lanes were evaluated by loading various amounts, and then the amount with optimized staining contrast was loaded and used for in-gel protein digestion. The pull down experiments shown in Figures 4E,F were performed a single time. The Western Blots and the pull down experiment shown in Figure 5 represent experiments in three and two independent experiments, respectively. Experiments in a well-based format (Figure 6) were performed with three technical and two biological replicates. All data illustrated in this manuscript show the mean ± standard deviation (SD) unless stated otherwise. The MS based protein identifications were performed in two technical analyses for each sample.
Figure 6 Foxo3a luciferase reporter assay. The modulation of the Akt/PI3K/Foxo3a pathway by the cyclotide [T20K]kB1 binding to 14-3-3 proteins was investigated. HEK293 cells were transiently transfected with Foxo3a-Luc plasmid encoding luciferase under a promotor with Foxo response elements, Foxo3a and 14-3-3β. For control the reporter plasmid (basal value) was also co-transfected with the single functional effector proteins 14-3-3β or Foxo3a. Cells were treated under starving conditions with peptide or fusicoccin-A (FC-A) for 4 h or 24 h, respectively. […]

[3] = system: myelin oligodendrocyte glycoprotein (MOG)-immunized mouse splenocytes; assay: anti-proliferation assay of MOG-restimulated splenocytes from 2D2 mice; type: cell-based; settings: summary in words; [T20K,W23Bpa]kB1 versus [T20K]kB1, 4 μM
Method: Biological integrity of probes was determined using their reported immunosuppressive activity (Grundemann et al., [2013]; Thell et al., [2016]). Briefly, activity was measured in isolated lymphocytes derived from self-donated human venous blood or mouse splenocytes derived from 2D2 myelin oligodendrocyte glycoprotein specific T-cell receptor transgenic mice on a C57Bl/6 background [C57Bl/6-Tg(Tcra2D2,Tcrb2D2) Kuch/J]. These mice develop spontaneous experimental autoimmune encephalomyelitis, a mouse model of multiple sclerosis. Bioactivity was assessed by T-cell proliferation using FACS or cytokine concentration analysis of interleukin-2 in the supernatant of ex vivo re-stimulated splenocytes for 72 h using an ELISA kit and antibodies from eBioscience® (Grundemann et al., [2013]; Thell et al., [2016]). All experiments were approved according to the European Community rules of animal care with the permission of the Austrian Ministry of Science (BMWF-66.009/0241-II/3B/2011).
If not stated in detail for the respective single experiment the statistical tests were performed using GraphPad Prism 5.04 (GraphPad, La Jolla, CA) using one-way ANOVA with Bonferonni or Dunnett's Post-hoc test. […] Silver stained gel lanes were evaluated by loading various amounts, and then the amount with optimized staining contrast was loaded and used for in-gel protein digestion. […]

| Compound | binding of probe [T20K,W23Bpa]kB1 to 14-3-3β in presence of competitor (GST-tagged 14-3-3β) | competition effect for 14-3-3 proteins (order) [1] | Foxo3a transcriptional activity, effect in words [2] | other results |
| --- | --- | --- | --- | --- |
| NC(=O)c1ncn([C@@H]2O[C@H](CO)[C@@H](O)[C@H]2O)c1O [mizoribine] |  |  |  | modulation of 14-3-3 protein function (14-3-3 proteins; ref Kawasaki, 2009): modulate 14-3-3 protein function |
| PHCVPRDLSWLDLEANMCLP [R18, reference compound] | significantly altered | competition effect in the order [T20K]kB1 < [T20K,W23Bpa]kB1 < R18 |  | effect as 14-3-3 inhibitor on Foxo3a (14-3-3 proteins; ref Arrendale et al., 2012): increase Foxo3a nuclear import to induce pro-apoptotic transcriptional activity; effect on intensity of protein bands ([1]; competitor at 100-fold molar excess, silver stained gel): did not alter the intensity of protein bands throughout the sample |
| C=CC(C)(C)OC[C@H]1O[C@H](O[C@@H]2C3=C([C@H](C)COC(C)=O)C[C@H](O)[C@]3(C)/C=C3/[C@@H](COC)CC[C@H]3[C@@H](C)[C@H]2O)[C@H](O)[C@@H](OC(C)=O)[C@@H]1O [fusicoccin-A, reference compound] |  |  |  | effect as 14-3-3 stabilizer (14-3-3 proteins; ref Skwarczynska et al., 2013, Bier et al., 2015, Milroy et al.): enforce protein complex formation of 14-3-3s with transcription factors; IC50 ([2]; HEK293 transfected with Foxo3a-Luc, Foxo3a and 14-3-3β, fusicoccin-A treatment 24 h, IC50 ± SD, two independent experiments, four parameter Hill fit, read-out: IC50, reduction of luciferase signal): 39.1 ± 2.34 µM |
| O=c1cc(N2CCOCC2)oc2c(-c3ccccc3)cccc12 [LY294002, reference compound] |  |  | increased transcriptional activity |  |
| COC[C@H]1OC(=O)c2coc3c2[C@@]1(C)C1=C(C3=O)[C@@H]2CCC(=O)[C@@]2(C)C[C@H]1OC(C)=O [wortmannin, reference compound] |  |  | increased transcriptional activity |  |
| CGETCVGGTCNTPGCKCSXPVCTRNGLPV (bicyclic or more) [[T20K,W23Bpa]kB1] | significantly altered | competition effect in the order [T20K]kB1 < [T20K,W23Bpa]kB1 < R18 |  | biological activity of probe [3]: retained biological activity |
